Legend:
Assay type in all cases: functional, Homo sapiens
Parameters in all cases: dose or concentration left out as unconfirmed
[1] = tested on: Colon cancer organoid; experiment: Identification of compartment-specific drug sensitivities in O06 CRC organoid-stroma F06 CAF co-cultures. Organoid is transduced with Lucferase2-P2A-EGFP lentivirus, fibroblast with Renilla-dsRed lentivirus. Dual-Glo Luciferase assay is used to report viability data.
[2] = tested on: Colon cancer organoid; experiment: Identification of compartment-specific drug sensitivities in O14 CRC organoid-stroma F14 CAF co-cultures. Organoid is transduced with Lucferase2-P2A-EGFP lentivirus, fibroblast with Renilla-dsRed lentivirus. Dual-Glo Luciferase assay is used to report viability data.
[3] = tested on: Colon cancer organoid; experiment: Identification of compartment-specific drug sensitivities in O20 CRC organoid-stroma F20 CAF co-cultures. Organoid is transduced with Lucferase2-P2A-EGFP lentivirus, fibroblast with Renilla-dsRed lentivirus. Dual-Glo Luciferase assay is used to report viability data.
[4] = Transduced with Lucferase2-P2A-EGFP lentivirus
[5] = Transduced with Renilla-dsRed lentivirus

SMILES | Cell Viability [1, 4] [%] | Cell Viability [1, 5] [%] | Cell Viability [2, 4] [%] | Cell Viability [2, 5] [%] | Cell Viability [3, 4] [%] | Cell Viability [3, 5] [%]
O[C@H]1CC[C@H](Nc2ncc3nc(Nc4c(F)cc(F)cc4F)n([C@H]4CCOC4)c3n2)CC1 [TANZISERTIB] | 96.802 | 109.826 | 133.231 | 127.243 | 128.622 | 97.8883
COc1cc(-c2cn(C)c(=O)c3cnccc23)c(OC)cc1CN(C)C | 79.252 | 108.934 | 100.672 | 88.7606 | 61.6023 | 139.676
COc1cccc2c1C(=O)c1c(O)c3c(c(O)c1C2=O)CC(O)(C(=O)CO)CC3OC1CC(N)C(O)C(C)O1.Cl (centres undefined) | 14.9439 | 235.56 | 3.454 | 89.9373 | 5.3877 | 237.178
CCC(=O)N[C@@H]1CC[C@H](C(=O)N(C)c2ccc(-c3nc4ccccc4o3)cc2)C1 [BI 99990] | 102.864 | 119.997 | 98.8872 | 100.403 | 115.817 | 121.154
CN1CCN(c2ccc(OC(F)(F)F)c(Nc3ncc4c(n3)-c3c(c(C(N)=O)nn3CCO)CC4)c2)CC1 [ONVANSERTIB] | 2.834 | 160.245 | 2.108 | 79.1847 | 1.999 | 184.086
Cc1c(Nc2ccc(S(=O)(=O)N3CCN(C)CC3)cc2F)nc2ccc(-c3cnn(C4CC4)c3)cn2c1=O | 106.525 | 138.146 | 116.873 | 77.7436 | 100.446 | 149.535
CNCCN1CCC(OCc2ccccc2)CC1 | 118.085 | 144.179 | 40.9856 | 114.707 | 15.2261 | 211.667
CCCc1cc(C)[nH]c(=O)c1CNC(=O)c1cc(-c2ccnc(N3CCN(C)CC3)c2)cc2c1cnn2C(C)C | 75.6598 | 125.188 | 87.4027 | 100.827 | 56.2508 | 146.305
Cn1cc(Cl)c2c(Oc3c(F)cc(Nc4cc(Cl)nc(N)n4)cc3F)ccnc21 [BAY-4900] | 121.536 | 149.241 | 86.5863 | 82.0192 | 91.1614 | 109.2
CCCCN(Cc1ccccc1)C(=O)c1ccc(S(=O)(=O)Nc2ccccc2)cc1 | 68.2046 | 126.816 | 91.6685 | 100.658 | 74.981 | 116.955
C[C@@H](NC(=O)Nc1cc2[nH]ncc2c(CO)n1)c1ccccc1 [ERKi] | 82.7933 | 113.572 | 56.1161 | 76.4372 | 50.0756 | 135.339
CC(=O)NCC(=O)N1[C@@H]2CC[C@H]1c1ccc(Nc3ncc(C(F)(F)F)c(NC4CCC4)n3)cc12 [PF-03814735] | 12.0789 | 82.3636 | 7.804 | 45.5161 | 4.585 | 155.761
Cc1noc(C)c1-c1cnc2c(-c3ccc(C(=O)O)cc3)cn([C@@H](C)c3ccccn3)c2c1 [PLX-51107] | 26.8486 | 312.702 | 39.3332 | 170.275 | 17.7697 | 177.825
CC(C)[C@H](C(=O)Nc1ccc(C(=O)NO)cc1)c1ccccc1 [AR-42] | 8.004 | 640.047 | 24.8523 | 220.952 | 13.9942 | 352.85
Cc1ccc(-c2cnc([C@@]3(O)CC[C@H](C(=O)O)C(C)(C)C3)s2)cc1Nc1cccc(C(F)(F)F)n1 [MRL-SYKi-NC] | 119.382 | 86.5869 | 134.887 | 107.343 | 106.503 | 131.597
Cc1ncsc1-c1ccc(CNC(=O)[C@@H]2C[C@@H](O)CN2C(=O)[C@@H](NC(=O)CCCCNC(=O)c2ccc(-c3ccc(N4CCN(C)CC4)c(NC(=O)c4c[nH]c(=O)cc4C(F)(F)F)c3)cc2)C(C)(C)C)cc1 | 81.8894 | 85.2238 | 124.425 | 102.442 | 172.591 | 86.697
CC#CC(=O)N1CCC[C@H]1c1nc(-c2ccc(C(=O)Nc3ccccn3)cc2)c2c(N)nccn12 [ACALABRUTINIB] | 96.562 | 83.4698 | 75.641 | 83.8473 | 96.3915 | 99.9657
C[C@@H]1CC(=O)Nc2cccc(-c3ccc4c(c3)c(-c3cnn(C)c3)nn4C)c2N1 | 96.7982 | 166.358 | 127.46 | 126.975 | 69.4002 | 148.573
O=C(O)[C@@H]1[C@@H](Cn2nnc3ccccc3c2=O)CC[C@H]1C(=O)c1ccc(OCCC2CCOCC2)cc1 [BAY-694] | 99.0718 | 68.3581 | 127.223 | 103.773 | 92.0939 | 91.7477
CC1(C)C(N)=Nc2cc(OCCCCN3Cc4ccc(OCc5cn(CC(=O)N6CCC(CCN7CCCC7)CC6)nn5)cc4C3)c(OCC3CC3)cc21 | 65.2251 | 114.368 | 112.762 | 94.6071 | 70.7317 | 125.652
Cc1nccc(COC(=O)N2C[C@@H]3[C@@H](CNC(=O)c4ccc5[nH]nnc5c4)[C@@H]3C2)n1 [BI 3017] | 143.297 | 89.1244 | 148.595 | 113.357 | 107.028 | 99.2728
N#CN1CC[C@H](C(=O)Nc2nc3c(s2)CN(C(=O)CN=[N+]=[N-])CC3)C1 [8RK64] | 104.648 | 104.354 | 81.1298 | 93.9024 | 67.6209 | 105.29
CC1=C(C(=O)Nc2cc3cn[nH]c3cc2F)C(c2ccc(C(F)(F)F)cc2)CC(=O)N1 (centres undefined) | 110.512 | 74.1449 | 103.838 | 118.18 | 133.463 | 94.2958
Cc1ccc(C(=O)Nc2cccc(C(F)(F)F)c2)cc1Nc1nc(-c2cccnc2)nc2c1cnn2C | 60.2736 | 70.9034 | 129.491 | 76.0508 | 143.016 | 123.917

Reference: ChEMBL document CHEMBL5608141, “Identification of compartment-specific drug sensitivities in CRC organoid-stroma co-cultures” (2024)
